Patent US20240398805A1, “QUINAZOLINE DERIVED COMPOUNDS AS EGFR INHIBITORS AND THEIR USES THEREOF” (ACCUTAR BIOTECHNOLOGY INC., priority 2021, published 2024)

Experiments:
Assay type in all cases: cell-based
[1] = tested on: HCC827 cells; experiment: Cell growth inhibition (CellTiter-Glo, 3 days) in HCC827; details: Homo sapiens, 72 h, 3 days after administration
Procedure, shortened: (§1)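 HCC827 cells in RPMI/10% FBS and A431 cells in DMEM/10% FBS were seeded at 5000 cells/well and left overnight. Compound was then added over a concentration range for 3 days of incubation, and viability was read by CellTiter-Glo luminescence.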

[2] = tested on: HCC827-SVD cells (human EGFR exon 20 insertion mutant D770_N771 insSVD); experiment: Cell growth inhibition (CellTiter-Glo, 3 days) in HCC827-SVD; details: 72 h, 3 days after administration
Procedure, shortened: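 HCC827 cells carrying lentiviral codon-optimized EGFR D770_N771 insSVD, with endogenous EGFR knocked out by CRISPR (single clone), seeded at 5000 cells/well in RPMI with 10% FBS. Viability read by CellTiter-Glo luminescence.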

[3] = tested on: HCC827-YVMA cells (human ERBB2 exon20 insertion mutant A775_G776ins YVMA); experiment: Cell growth inhibition (CellTiter-Glo, 3 days) in HCC827-YVMA; details: 72 h, 3 days after administration
Procedure, shortened: (§2)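 Growth inhibition used a CellTiter-Glo luminescence read-out after 3 days of compound exposure at various concentrations. Cells were plated the day before at 5000/well in RPMI plus 10% FBS. The lines are HCC827 transduced by lentivirus with codon-optimized EGFR ASV or ERBB2 YVMA exon 20 insertions.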

[4] = tested on: A431 cells; experiment: Cell growth inhibition (CellTiter-Glo, 3 days) in A431; details: Homo sapiens, A-431, 72 h, 3 days after administration
Procedure, shortened: as §1

[5] = tested on: HCC827-ASV cells (human EGFR exon 20 insertion mutant A769_D770insASV); experiment: Cell growth inhibition (CellTiter-Glo, 3 days) in HCC827-ASV; details: 72 h, 3 days after administration
Procedure, shortened: as §2

| Structure (SMILES) | GI50 [1] [nM] | GI50 [2] [nM] | GI50 [3] [nM] | GI50 [4] [nM] | GI50 [5] [nM] |
| --- | --- | --- | --- | --- | --- |
| C=CC(=O)N1CCC(Nc2cc3c(Nc4ccc(Oc5ccnc(CN6CCCC6)c5)cc4F)ncnc3cc2OC)CC1 [Example 209, 1-(4-((4-((2-fluoro-4-((2-(pyrrolidin-1-ylmethyl)pyridin-4-yl)oxy)phenyl)amino)-7-methoxyquinazolin-6-yl)amino)piperidin-1-yl)prop-2-en-1-one] | 100 to 300 | 100 to 300 | 60 to 100 | 600 to 1000 | 100 to 300 |
| C=CC(=O)N1CCC(Nc2cc3c(Nc4ccc(Oc5ccnc(C(=O)OC)c5)cc4F)ncnc3cc2OC)CC1 [Example 211, methyl 4-(4-((6-((1-acryloylpiperidin-4-yl)amino)-7-methoxyquinazolin-4-yl)amino)-3-fluorophenoxy) picolinate] | ≥ 1000 | ≥ 1000 | 600 to 1000 | ≥ 1000 | ≥ 1000 |
| C=CC(=O)N1CCC(Nc2cc3c(Nc4ccc(Oc5ccnc(C(=O)O)c5)cc4F)ncnc3cc2OC)CC1 [Example 212, 4-(4-((6-((1-acryloylpiperidin-4-yl)amino)-7-methoxyquinazolin-4-yl)amino)-3-fluorophenoxy) picolinic acid] | ≥ 1000 | ≥ 1000 | ≥ 1000 | ≥ 1000 | ≥ 1000 |
| C=CC(=O)N1CCC(Nc2cc3c(Nc4ccc(Oc5ccnc(C6=CCN(C)CC6)c5)cc4F)ncnc3cc2OC)CC1 [Example 213, 1-(4-((4-((2-fluoro-4-((1′-methyl-1′,2′,3′,6′-tetrahydro-[2,4′-bipyridin]-4-yl)oxy)phenyl)amino)-7-methoxyquinazolin-6-yl)amino)piperidin-1-yl)prop-2-en-1-one] | 300 to 600 | 300 to 600 | 300 to 600 | ≥ 1000 | 100 to 300 |
| C=CC(=O)N1CCC(Nc2cc3c(Nc4ccc(Oc5ccnc(N6CCC[C@@H](O)C6)c5)cc4F)ncnc3cc2OC)CC1 [Example 214, (R)-1-(4-((4-((2-fluoro-4-((2-(3-hydroxypiperidin-1-yl)pyridin-4-yl)oxy)phenyl)amino)-7-methoxyquinazolin-6-yl)amino)piperidin-1-yl)prop-2-en-1-one] | 300 to 600 | 30 to 60 | < 30 | ≥ 1000 | < 30 |
| C=CC(=O)N1CCC(Nc2cc3c(Nc4ccc(Oc5ccnc(N6CCC[C@@H](N)C6)c5)cc4F)ncnc3cc2OC)CC1 [Example 217, (R)-1-(4-((4-((4-((2-(3-aminopiperidin-1-yl)pyridin-4-yl)oxy)-2-fluorophenyl)amino)-7-methoxyquinazolin-6-yl)amino)piperidin-1-yl)prop-2-en-1-one] | ≥ 1000 | 300 to 600 | 600 to 1000 | ≥ 1000 | 600 to 1000 |
| C=CC(=O)N1CCC(Nc2cc3c(Nc4ccc(Oc5ccnc(N6CCC(F)(F)CC6)c5)cc4F)ncnc3cc2OC)CC1 [Example 218, 1-(4-((4-((4-((2-(4,4-difluoropiperidin-1-yl)pyridin-4-yl)oxy)-2-fluorophenyl)amino)-7-methoxyquinazolin-6-yl)amino)piperidin-1-yl)prop-2-en-1-one] | 100 to 300 | 30 to 60 | 30 to 60 | ≥ 1000 | 30 to 60 |

Second part, the compound after the results:

| GI50 [1] [nM] | GI50 [2] [nM] | GI50 [3] [nM] | GI50 [4] [nM] | GI50 [5] [nM] | Structure (SMILES) |
| --- | --- | --- | --- | --- | --- |
| 60 to 100 | < 30 | < 30 | 600 to 1000 | < 30 | C=CC(=O)N1CCC(Nc2cc3c(Nc4ccc(Oc5ccnc(N6CC(F)(F)C6)c5)cc4F)ncnc3cc2OC)CC1 [Example 201, 1-(4-((4-((4-((2-(3,3-difluoroazetidin-1-yl)pyridin-4-yl)oxy)-2-fluorophenyl)amino)-7-methoxyquinazolin-6-yl)amino)piperidin-1-yl)prop-2-en-1-one] |
| < 30 | < 30 | < 30 | 100 to 300 | < 30 | C=CC(=O)N1CCC(Nc2cc3c(Nc4ccc(Oc5ccnc(N6CC(C)(C)C6)c5)cc4F)ncnc3cc2OC)CC1 [Example 202, 1-(4-((4-((4-((2-(3,3-dimethylazetidin-1-yl)pyridin-4-yl)oxy)-2-fluorophenyl)amino)-7-methoxyquinazolin-6-yl)amino)piperidin-1-yl)prop-2-en-1-one] |
| 100 to 300 | < 30 | < 30 | 100 to 300 | < 30 | C=CC(=O)N1CCC(Nc2cc3c(Nc4ccc(Oc5ccnc(N6CC(C)(O)C6)c5)cc4F)ncnc3cc2OC)CC1 [Example 203, 1-(4-((4-((2-fluoro-4-((2-(3-hydroxy-3-methylazetidin-1-yl)pyridin-4-yl)oxy)phenyl)amino)-7-methoxyquinazolin-6-yl)amino)piperidin-1-yl)prop-2-en-1-one] |
| 60 to 100 | < 30 | < 30 | 100 to 300 | < 30 | C=CC(=O)N1CCC(Nc2cc3c(Nc4ccc(Oc5ccnc(N6CC7(CCOCC7)C6)c5)cc4F)ncnc3cc2OC)CC1 [Example 204, 1-(4-((4-((4-((2-(7-oxa-2-azaspiro[3.5]nonan-2-yl)pyridin-4-yl)oxy)-2-fluorophenyl)amino)-7-methoxyquinazolin-6-yl)amino)piperidin-1-yl)prop-2-en-1-one] |
| < 30 | < 30 | < 30 | 100 to 300 | < 30 | C=CC(=O)N1CCC(Nc2cc3c(Nc4ccc(Oc5ccnc(N6CC(C)(C#N)C6)c5)cc4F)ncnc3cc2OC)CC1 [Example 205, 1-(4-(4-((6-((1-acryloylpiperidin-4-yl)amino)-7-methoxyquinazolin-4-yl)amino)-3-fluorophenoxy)pyridin-2-yl)-3-methylazetidine-3-carbonitrile] |
| 60 to 100 | < 30 | < 30 | 100 to 300 | < 30 | C=CC(=O)N1CCC(Nc2cc3c(Nc4ccc(Oc5ccnc(N6CC(O)(C(F)(F)F)C6)c5)cc4F)ncnc3cc2OC)CC1 [Example 206, 1-(4-((4-((2-fluoro-4-((2-(3-hydroxy-3-(trifluoromethyl)azetidin-1-yl)pyridin-4-yl)oxy)phenyl)amino)-7-methoxyquinazolin-6-yl)amino)piperidin-1-yl)prop-2-en-1-one] |
| 30 to 60 | < 30 | < 30 | 100 to 300 | < 30 | C=CC(=O)N1CCC(Nc2cc3c(Nc4ccc(Oc5ccnc(N6CC(C)(OC)C6)c5)cc4F)ncnc3cc2OC)CC1 [Example 207, 1-(4-((4-((2-fluoro-4-((2-(3-methoxy-3-methylazetidin-1-yl)pyridin-4-yl)oxy)phenyl)amino)-7-methoxyquinazolin-6-yl)amino)piperidin-1-yl)prop-2-en-1-one] |
| 100 to 300 | < 30 | 30 to 60 | 600 to 1000 | < 30 | C=CC(=O)N1CCC(Nc2cc3c(Nc4ccc(Oc5ccnc(N6CC(CC#N)C6)c5)cc4F)ncnc3cc2OC)CC1 [Example 208, 2-(1-(4-(4-((6-((1-acryloylpiperidin-4-yl)amino)-7-methoxyquinazolin-4-yl)amino)-3-fluorophenoxy)pyridin-2-yl)azetidin-3-yl)acetonitrile] |
